Experimental findings from the CombiSolv-Exp solvation set (Vermeire and Green 2021) are described below.

The nature of this data set: solvent given as SMILES.
The mark [1] stands for this setting: in CCCCCCCCC=CCCCCCCCC(=O)OCC(COC(=O)CCCCCCCC=CCCCCCCCC)OC(=O)CCCCCCCC=CCCCCCCCC

`O=C(c1ccc(Br)cc1)N(O)c1ccc(Cl)cc1`: the “solvation free energy, 298 K” value (in O) was -11.6 kcal/mol.
Same read-out and setting: to `Cc1ccc(CN)cc1` belongs -6.07 kcal/mol.
As for `C1CC1`, the “solvation free energy, 298 K” value (in C1COCCO1) was -1.94 kcal/mol; the “solvation free energy, 298 K” value (in CC(C)O) is -1.58 kcal/mol; the “solvation free energy, 298 K” value (in CCCCCC) was -1.98 kcal/mol; the “solvation free energy, 298 K” value (in CCCCO) was -1.72 kcal/mol; the “solvation free energy, 298 K” value (in CCCO) is -1.57 kcal/mol; the “solvation free energy, 298 K” value (in O) was found to be 0.75 kcal/mol.
For the compound `CCCCCCCBr`, the “solvation free energy, 298 K” value (in O) came out at 0.34 kcal/mol.
In the case of `c1ccncc1`, the “solvation free energy, 298 K” value runs as follows: (in C1COCCO1) -5.69 kcal/mol; (in CC(=O)N(C)C) -5.76 kcal/mol; (in CC(C)(C)O) -5.4 kcal/mol; (in CC(C)=O) -5.42 kcal/mol; (in CC(C)CC(C)(C)C) -4.03 kcal/mol; (in CC(C)CO) -5.67 kcal/mol. Besides, the “solvation free energy, 298 K” value is -5.27 kcal/mol (in CC(C)O); -5.37 kcal/mol (in CCC(C)=O); -5.63 kcal/mol (in CCC(C)O); -4.19 kcal/mol (in CCCCCC); -4.04 kcal/mol (in CCCCCCCCCCCCCCCC); -5.32 kcal/mol (in CCCCCCCCO). Besides, the “solvation free energy, 298 K” value runs as follows: (in CCCCN(C=O)CCCC) -5.32 kcal/mol; (in CCCCO) -5.39 kcal/mol; (in CCCO) -5.44 kcal/mol; (in CCO) -5.7 kcal/mol; (in CNC(C)=O) -5.35 kcal/mol; (in O) -4.69 kcal/mol. The “solvation free energy, 298 K” value (in [2H]O[2H]) is -4.52 kcal/mol.
Consider `FC(F)(F)CCl`, for which the “solvation free energy, 298 K” value is -2.41 kcal/mol (in CCCCCCCC(=O)OCC(COC(=O)CCCCCCC)OC(=O)CCCCCCC) and 0.06 kcal/mol (in O).
Take `FCF`: the “solvation free energy, 298 K” value (in CCCCCCCCC) was -0.37 kcal/mol; the “solvation free energy, 298 K” value (in CCCCCCCCO) is -0.57 kcal/mol; the “solvation free energy, 298 K” value (in CN1CCCC1=O) was -1.69 kcal/mol; the “solvation free energy, 298 K” value (in CN(C)C=O) was -1.69 kcal/mol; the “solvation free energy, 298 K” value (in O) was -0.33 kcal/mol.
In the case of `Nc1ccc2c(c1)C(=O)c1ccccc1C2=O`, the “solvation free energy, 298 K” value (in O) is -11.5 kcal/mol.
The same measure, in the same setting: to `CCc1cccc2ccccc12` belongs -2.3 kcal/mol.
For `O=c1[nH]c2ccccc2n1C1CCN(CCCC(c2ccc(F)cc2)c2ccc(F)cc2)CC1`, the “solvation free energy, 298 K” value (in C1COCCO1) was -27.7 kcal/mol; the “solvation free energy, 298 K” value (in CC(C)O) is -26.4 kcal/mol; the “solvation free energy, 298 K” value (in CCCCCCCCO) is -26.7 kcal/mol; the “solvation free energy, 298 K” value (in CCCCCCCO) is -26.8 kcal/mol; the “solvation free energy, 298 K” value (in CCCCCCO) is -26.7 kcal/mol; the “solvation free energy, 298 K” value (in CCCCCO) was -26.8 kcal/mol. Moreover, the “solvation free energy, 298 K” value runs as follows: (in CCCCO) -26.7 kcal/mol; (in CCCO) -26.6 kcal/mol; (in CCO) -26.6 kcal/mol; (in CCOC(C)=O) -26.6 kcal/mol; (in CO) -26.6 kcal/mol.
On to `O=S(=O)(c1ccccc1)c1ccccc1`, for which the “solvation free energy, 298 K” value (in C1CCOC1) was -14.9 kcal/mol; the “solvation free energy, 298 K” value (in C1COCCO1) was -15 kcal/mol; the “solvation free energy, 298 K” value (in CC(C)(C)O) is -13.2 kcal/mol; the “solvation free energy, 298 K” value (in CC(C)CC(C)(C)C) was -11.6 kcal/mol; the “solvation free energy, 298 K” value (in CC(C)CCO) is -13.1 kcal/mol; the “solvation free energy, 298 K” value (in CC(C)CO) was -13.2 kcal/mol. Also, the “solvation free energy, 298 K” value reads like this: (in CC(C)O) -13.2 kcal/mol; (in CC(C)OC(C)C) -13.1 kcal/mol; (in CCC(C)CO) -13.2 kcal/mol; (in CCC(C)O) -13.4 kcal/mol; (in CCCC(C)O) -13.1 kcal/mol; (in CCCCCC) -11.8 kcal/mol. Also, the “solvation free energy, 298 K” value is, setting by setting: (in CCCCCCC) -11.8 kcal/mol; (in CCCCCCCC) -11.8 kcal/mol; (in CCCCCCCCCC) -11.8 kcal/mol; (in CCCCCCCCCCO) -12.8 kcal/mol; (in CCCCCCCO) -13.1 kcal/mol; (in CCCCCCO) -13.2 kcal/mol. Moreover, the “solvation free energy, 298 K” value was -13.3 kcal/mol (in CCCCCO); -14.1 kcal/mol (in CCCCCl); -13.4 kcal/mol (in CCCCO); -14.2 kcal/mol (in CCCCOC(C)=O); -12.8 kcal/mol (in CCCCOCCCC); -13.5 kcal/mol (in CCCO). The “solvation free energy, 298 K” value (in CCO) is -13.6 kcal/mol; the “solvation free energy, 298 K” value (in CCOC(C)=O) was -14.6 kcal/mol; the “solvation free energy, 298 K” value (in CCOCC) is -13.7 kcal/mol; the “solvation free energy, 298 K” value (in CO) was -13.8 kcal/mol; the “solvation free energy, 298 K” value (in COC(C)(C)C) was -13.5 kcal/mol; the “solvation free energy, 298 K” value (in COC(C)=O) is -14.7 kcal/mol. Moreover, the “solvation free energy, 298 K” value (in O) was -10.1 kcal/mol.
Regarding `C=C(C)C1CC=C(C)C(OC(=O)CC)C1` (configuration not stated), the “solvation free energy, 298 K” value (in O) was -3.87 kcal/mol.
Still for that read-out and setting: to `CC(=O)OCC=C(C)CCC=C(C)CCC=C(C)C` belongs -3.96 kcal/mol.
Consider `CC1CCC2(C(C)C)CC12` (configuration not stated), for which the “solvation free energy, 298 K” value (in O) was 1.13 kcal/mol.
In the case of `CC=C(C)C`, the “solvation free energy, 298 K” value is, setting by setting: (in BrC(Br)C(Br)Br) -2.68 kcal/mol; (in C1=Cc2ccccc2C1) -3.05 kcal/mol; (in C=CCCCCCCCCCCCCCC) -2.97 kcal/mol; (in CC1COC(=O)O1) -2.09 kcal/mol; (in CC(=O)N(C)C) -2.58 kcal/mol; (in CC(=O)c1ccccc1) -2.79 kcal/mol. For the same compound, the “solvation free energy, 298 K” value is -3.22 kcal/mol (in CC(C)(C)O); -2.9 kcal/mol (in CCCCC#N); -2.96 kcal/mol (in CCCCCC#N); -2.69 kcal/mol (in CCNC(C)=O); -2.51 kcal/mol (in CN1CCCC1=O); -2.56 kcal/mol (in CN(C)C=O). Besides, the “solvation free energy, 298 K” value by setting is: (in CN(C)P(=O)(N(C)C)N(C)C) -2.61 kcal/mol; (in CNC(C)=O) -2.54 kcal/mol; (in CNC=O) -2.17 kcal/mol; (in CS(C)=O) -1.97 kcal/mol; (in Cc1cccc2ccccc12) -2.88 kcal/mol; (in Cc1cccc(O)c1) -2.63 kcal/mol. Further, the “solvation free energy, 298 K” value by setting is: (in ClC(Cl)C(Cl)Cl) -3.16 kcal/mol; (in Clc1cccc2ccccc12) -2.8 kcal/mol; (in N#CCCCC#N) -1.67 kcal/mol; (in N#CCCCCC#N) -1.98 kcal/mol; (in N#CCc1ccccc1) -2.48 kcal/mol; (in N#Cc1ccccc1) -2.89 kcal/mol. Moreover, the “solvation free energy, 298 K” value reads like this: (in NCc1ccccc1) -2.67 kcal/mol; (in Nc1ccccc1) -2.3 kcal/mol; (in O) 1.37 kcal/mol; (in O=C1CCCCC1) -3.09 kcal/mol; (in O=C(O)C(Cl)Cl) -2.63 kcal/mol; (in OCCO) -0.76 kcal/mol. In addition, the “solvation free energy, 298 K” value (in OCc1ccccc1) was -2.44 kcal/mol.
Take `O=C(Oc1ccccc1)Oc1ccccc1`: the “solvation free energy, 298 K” value reads like this: (in CC(C)CO) -11.2 kcal/mol; (in CC(C)O) -11.3 kcal/mol; (in CCC(C)O) -11.2 kcal/mol; (in CCCCO) -11.4 kcal/mol; (in CCCO) -11.5 kcal/mol; (in CCO) -11.6 kcal/mol. The “solvation free energy, 298 K” value (in CO) is -11.8 kcal/mol.
With `Clc1ccc(Cl)c(Cl)c1Cl`, the “solvation free energy, 298 K” value was -7.82 kcal/mol under setting [1], -7.69 kcal/mol (in CCCCCCCCO) and -1.34 kcal/mol (in O).
As to `CCCCCCCCCCCCCCCC(=O)OCC`, the “solvation free energy, 298 K” value (in O) is -7.23 kcal/mol.
Regarding `CC=CC`, the “solvation free energy, 298 K” value (in CC(=O)N(C)C) was -2.17 kcal/mol; the “solvation free energy, 298 K” value (in CC(C)=O) is -2.47 kcal/mol; the “solvation free energy, 298 K” value (in CCOC(C)=O) is -2.77 kcal/mol; the “solvation free energy, 298 K” value (in CN(C)C=O) was -2.11 kcal/mol; the “solvation free energy, 298 K” value (in O) was 1.34 kcal/mol; the “solvation free energy, 298 K” value (in O=CN1CCOCC1) is -1.45 kcal/mol.
`COc1cc(C)ccc1O`: the “solvation free energy, 298 K” value (in O) is -5.8 kcal/mol.
Turning to `ClC(Cl)(Cl)Br`, the “solvation free energy, 298 K” value (in CS(C)=O) is -4.78 kcal/mol.
Consider `Cc1cccc(C)c1C`, for which the “solvation free energy, 298 K” value (in O) was -1.15 kcal/mol.
On to `CC1(C)C2CC3C(C2)C31C`, for which the “solvation free energy, 298 K” value (in O) worked out at 0.87 kcal/mol.
As for `Clc1ccc(C(c2ccc(Cl)cc2)C(Cl)(Cl)Cl)cc1`, the “solvation free energy, 298 K” value reads like this: under setting [1], -14.9 kcal/mol; (in CCCCCCCCO) -13.8 kcal/mol; (in O) -4.61 kcal/mol.
As for `ClCC(Cl)Cl`, the “solvation free energy, 298 K” value is, setting by setting: (in CCCCCCCCO) -4.63 kcal/mol; (in ClC(Cl)(Cl)Cl) -5.06 kcal/mol; (in ClC(Cl)Cl) -5.28 kcal/mol; (in ClCCCl) -5.47 kcal/mol; (in O) -1.99 kcal/mol.
On to `c1ccc2ccccc2c1`, for which the “solvation free energy, 298 K” value is -8.21 kcal/mol (in C1CCOC1); -7.98 kcal/mol (in C1COCCO1); -7.7 kcal/mol (in CC(=O)OCC(C)C); -6.85 kcal/mol (in CC(C)(C)O); -7.84 kcal/mol (in CC(C)=O); -6.92 kcal/mol (in CC(C)CC(C)(C)C). The “solvation free energy, 298 K” value was -7.09 kcal/mol (in CC(C)CO); -6.9 kcal/mol (in CC(C)O); -6.88 kcal/mol (in CCC(C)O); -7.24 kcal/mol (in CCCCCC); -7.22 kcal/mol (in CCCCCCC); -7.56 kcal/mol under setting [1]. The “solvation free energy, 298 K” value is -7.08 kcal/mol (in CCCCCCCCO); -7.12 kcal/mol (in CCCCCCO); -6.89 kcal/mol (in CCCCCO); -7.09 kcal/mol (in CCCCO); -7.08 kcal/mol (in CCCO); -7.08 kcal/mol (in CCO). The “solvation free energy, 298 K” value (in CCOC(C)=O) is -7.78 kcal/mol; the “solvation free energy, 298 K” value (in CN1CCCC1=O) is -8.08 kcal/mol; the “solvation free energy, 298 K” value (in CN(C)C=O) is -7.95 kcal/mol; the “solvation free energy, 298 K” value (in CO) was -7.01 kcal/mol; the “solvation free energy, 298 K” value (in Cc1ccc(C)cc1) is -7.88 kcal/mol; the “solvation free energy, 298 K” value (in Cc1cccc(C)c1) was -7.86 kcal/mol. The “solvation free energy, 298 K” value (in Cc1ccccc1C) was -7.85 kcal/mol; the “solvation free energy, 298 K” value (in ClC(Cl)(Cl)Cl) was -7.63 kcal/mol; the “solvation free energy, 298 K” value (in ClCCCl) is -8.02 kcal/mol; the “solvation free energy, 298 K” value (in ClCCl) is -8.1 kcal/mol; the “solvation free energy, 298 K” value (in Clc1ccccc1) is -7.87 kcal/mol; the “solvation free energy, 298 K” value (in O) is -2.37 kcal/mol. Besides, the “solvation free energy, 298 K” value (in O=C1CCCCC1) is -7.72 kcal/mol.
For the compound `COc1cccc(C=O)c1O`, under “in O”, the “solvation free energy, 298 K” value was -6.89 kcal/mol.
For the compound `COC(=O)c1cc([N+](=O)[O-])cc([N+](=O)[O-])c1`, the “solvation free energy, 298 K” value (in CN(C)C=O) was -13.3 kcal/mol and the “solvation free energy, 298 K” value (in O) was -8.92 kcal/mol.
`Clc1cc(Cl)c(Cl)cc1Cl`: the “solvation free energy, 298 K” value runs as follows: (in CCCCCCCCO) -7.67 kcal/mol; (in O) -1.34 kcal/mol.
As for `C1=CCCCCCC1`, the “solvation free energy, 298 K” value (in CN1CCCC1=O) is -4.91 kcal/mol and the “solvation free energy, 298 K” value (in CN(C)C=O) is -4.77 kcal/mol.
Take `CC(=O)CCCCC(C)C`: the “solvation free energy, 298 K” value was -5.09 kcal/mol (in NC=O) and -2.84 kcal/mol (in O).
